Measured values published in the supplement of paper PMC10307832.

Experiments:
Experiment in all cases: relative viability (nuclei count vs DMSO), 5 days (fraction); higher = more cells survive
Carfilzomib + Navitoclax = compound: CC(C)C[C@H](NC(=O)[C@H](CCc1ccccc1)NC(=O)CN1CCOCC1)C(=O)N[C@@H](Cc1ccccc1)C(=O)N[C@@H](CC(C)C)C(=O)[C@@]1(C)CO1 [Carfilzomib] + CC1(C)CCC(c2ccc(Cl)cc2)=C(CN2CCN(c3ccc(C(=O)NS(=O)(=O)c4ccc(N[C@H](CCN5CCOCC5)CSc5ccccc5)c(S(=O)(=O)C(F)(F)F)c4)cc3)CC2)C1 [Navitoclax] (partner 0.5 µM)
Procedure, shortened: (§1)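 A single step with final 0.05% Triton X-100, 1% formaldehyde and 1 ug/ml Hoechst fixed the cells and stained nuclei 5 days after treatment. Lung cancer cell lines in 1536-well plates had been treated by pin tool the day after seeding with one drug alone or a fixed anchor-drug dose plus five library-drug doses (not always all listed) in √10 steps, and nuclei were counted on 4× images. Relative viability is the ratio of nuclei in treated wells to nuclei in vehicle wells, taken as the median of duplicate plates.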

Crizotinib + Bortezomib = compound: C[C@@H](Oc1cc(-c2cnn(C3CCNCC3)c2)cnc1N)c1c(Cl)ccc(F)c1Cl [Crizotinib] + CC(C)C[C@H](NC(=O)[C@H](Cc1ccccc1)NC(=O)c1cnccn1)B(O)O [Bortezomib] (partner 0.002 µM)
Procedure, shortened: as §1

Olaparib + Lapatinib = compound: O=C(c1cc(Cc2n[nH]c(=O)c3ccccc23)ccc1F)N1CCN(C(=O)C2CC2)CC1 [Olaparib] + CS(=O)(=O)CCNCc1ccc(-c2ccc3ncnc(Nc4ccc(OCc5cccc(F)c5)c(Cl)c4)c3c2)o1 [Lapatinib] (partner 2 µM)
Procedure, shortened: as §1

Crizotinib + AZD7762 = compound: C[C@@H](Oc1cc(-c2cnn(C3CCNCC3)c2)cnc1N)c1c(Cl)ccc(F)c1Cl [Crizotinib] + NC(=O)Nc1cc(-c2cccc(F)c2)sc1C(=O)N[C@H]1CCCNC1 [AZD7762] (partner 0.2 µM)
Procedure, shortened: as §1

| Cell Line | relative viability (Carfilzomib + Navitoclax; first compound 0.001 µM) | relative viability (Carfilzomib + Navitoclax; first compound 0.003162 µM) | relative viability (Carfilzomib + Navitoclax; first compound 0.01 µM) | relative viability (Carfilzomib + Navitoclax; first compound 0.03162 µM) | relative viability (Carfilzomib + Navitoclax; first compound 0.1 µM) | relative viability (Crizotinib + Bortezomib; first compound 0.01 µM) | relative viability (Crizotinib + Bortezomib; first compound 0.03162 µM) | relative viability (Crizotinib + Bortezomib; first compound 0.1 µM) | relative viability (Crizotinib + Bortezomib; first compound 0.3162 µM) | relative viability (Crizotinib + Bortezomib; first compound 1 µM) | relative viability (Olaparib + Lapatinib; first compound 0.08 µM) | relative viability (Olaparib + Lapatinib; first compound 0.253 µM) | relative viability (Olaparib + Lapatinib; first compound 2.53 µM) | relative viability (Olaparib + Lapatinib; first compound 8 µM) | relative viability (Crizotinib + AZD7762; first compound 0.01 µM) | relative viability (Crizotinib + AZD7762; first compound 0.03162 µM) | relative viability (Crizotinib + AZD7762; first compound 0.1 µM) | relative viability (Crizotinib + AZD7762; first compound 0.3162 µM) | relative viability (Crizotinib + AZD7762; first compound 1 µM) |
| --- | --- | --- | --- | --- | --- | --- | --- | --- | --- | --- | --- | --- | --- | --- | --- | --- | --- | --- | --- |
| NCI-H2228 | 1.06 | 1.56 | 0.788 | 0.699 | 0.0563 | 0.84 | 0.874 | 0.833 | 0.647 | 0.346 | 1.28 | 0.879 | 0.835 | 0.765 |  |  |  |  |  |
| NCI-H2342 |  |  |  |  |  |  |  |  |  |  |  |  |  |  | 0.465 | 0.504 | 0.483 | 0.441 | 0.575 |
| SK-LU-1 | 0.77 | 0.896 | 0.286 | 0.0872 | 0.0846 | 1.19 | 1.13 | 1.46 | 0.794 | 1.3 | 1.2 | 0.803 | 0.83 | 0.683 |  |  |  |  |  |
| SK-MES-1 | 1.29 | 1.25 | 1.26 | 0.416 | 0.172 |  |  |  |  |  | 0.537 | 0.491 | 0.501 | 0.433 |  |  |  |  |  |
| SW 900 |  |  |  |  |  |  |  |  |  |  |  |  |  |  | 0.54 | 0.627 | 0.616 | 0.663 | 0.617 |
| SW 1573 | 1.06 | 1.11 | 0.8 | 0.0728 | 0.0538 |  | 1.04 | 1.04 | 1.19 | 0.836 | 1.16 | 1 | 1 | 0.689 |  |  |  |  |  |
| UMC-11 | 0.278 | 0.326 | 0.332 | 0.269 | 0.103 | 0.615 | 0.989 | 0.695 | 0.199 | 0.9 | 1.08 | 0.928 | 0.643 | 0.365 |  |  |  |  |  |
